Literature values in US20210315250A1, “COMBINATION BROAD-SPECTRUM ANTIVIRAL NATURAL EXTRACT SUPPLEMENTS” (priority 2020, published 2021).

How the values were obtained:
ACE2 receptor = ACE2 receptor (Homo sapiens, UniProt Q9BYF1)
viral S protein = viral S protein (Severe acute respiratory syndrome coronavirus 2, UniProt P0DTC2)
SARS-CoV 3CL = SARS-CoV 3CL (Severe acute respiratory syndrome coronavirus, UniProt P0C6X7)
[1] = system: docking site for SARS-CoV-2

Sequence of ACE2 receptor (Q9BYF1 18-805): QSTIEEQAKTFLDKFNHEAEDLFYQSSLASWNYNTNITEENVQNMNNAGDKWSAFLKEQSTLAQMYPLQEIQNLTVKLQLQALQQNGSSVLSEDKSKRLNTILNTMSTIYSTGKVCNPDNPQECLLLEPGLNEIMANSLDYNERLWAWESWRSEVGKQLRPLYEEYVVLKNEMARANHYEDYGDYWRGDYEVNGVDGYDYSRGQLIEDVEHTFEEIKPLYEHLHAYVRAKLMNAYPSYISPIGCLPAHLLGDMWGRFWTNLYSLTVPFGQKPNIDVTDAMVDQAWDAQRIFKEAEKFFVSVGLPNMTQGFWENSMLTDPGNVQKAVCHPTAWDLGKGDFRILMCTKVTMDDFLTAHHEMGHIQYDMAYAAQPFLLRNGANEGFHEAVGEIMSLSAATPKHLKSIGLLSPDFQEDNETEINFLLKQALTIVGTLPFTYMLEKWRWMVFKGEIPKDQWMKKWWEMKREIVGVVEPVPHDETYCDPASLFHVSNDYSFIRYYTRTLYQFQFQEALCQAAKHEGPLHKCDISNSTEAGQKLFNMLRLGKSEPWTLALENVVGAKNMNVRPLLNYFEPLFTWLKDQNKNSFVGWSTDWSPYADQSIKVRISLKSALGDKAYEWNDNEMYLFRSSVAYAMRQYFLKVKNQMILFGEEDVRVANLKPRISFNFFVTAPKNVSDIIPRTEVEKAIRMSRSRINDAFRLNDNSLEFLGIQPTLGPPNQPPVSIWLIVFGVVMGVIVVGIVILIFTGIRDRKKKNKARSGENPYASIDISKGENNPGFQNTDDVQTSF

In the case of `COc1cc(/C=C/C(=O)CC(=O)/C=C/c2ccc(O)c(OC)c2)ccc1O` [Curcumin], the “interaction with ACE2 receptor docking site” value (ACE2 receptor) is given as “interact” and the “interaction with viral S protein docking site” value (viral S protein) is given as “interact”.

For `O=c1cc(-c2ccc(O)c(O)c2)oc2cc(O)cc(O)c12` [Luteolin], the “inhibition of the docking site for SARS-CoV 3CL” value (SARS-CoV 3CL) is given as “inhibit”.

For `CC(=O)C=O` [Methylglyoxal], the “inhibition of viruses, in particular influenza” value (influenza) is given as “inhibit”.

In the case of `O=c1c(O)c(-c2cc(O)c(O)c(O)c2)oc2cc(O)cc(O)c12` [Myricetin], the “inhibition of the docking site for SARS-CoV-2” value [1] is listed as “inhibit”.

In the case of `O=C1OC[C@H](Cc2ccc3c(c2)OCO3)/C1=C\c1ccc2c(c1)OCO2` [Savinin], the “inhibition of the docking site for SARS-CoV 3CL” value (SARS-CoV 3CL) is listed as “inhibit”.

In the case of `C/C=C/c1ccc(OC)cc1` [Trans-anethole], the “inhibition of HSV-1” value (HSV-1) is listed as “inhibit”.

In the case of `O=c1c(O)c(-c2ccc(O)cc2)oc2c(O)c(O)cc(O)c12` [herbacetin], the “binding to SARS-CoV 3CL” value (SARS-CoV 3CL) is listed as “bind”.

In the case of `CCCCCCCCCCCCCC(=O)O` [myristic acid], the “inhibition of HIV” value (HIV) is given as “inhibit” and the “inhibition of SVS” value (SVS) is given as “inhibit”.

For `COc1ccc(-c2cc(=O)c3c(O)c(OC)c(O[C@@H]4O[C@H](CO[C@@H]5O[C@@H](C)[C@H](O)[C@@H](O)[C@H]5O)[C@@H](O)[C@H](O)[C@H]4O)cc3o2)cc1` [pectolinarin], the “binding to SARS-CoV 3CL” value (SARS-CoV 3CL) is listed as “bind”.

For `C[C@@H]1O[C@@H](O[C@H]2[C@H](Oc3cc(O)c4c(=O)cc(-c5ccc(O)cc5)oc4c3)O[C@H](CO)[C@@H](O)[C@@H]2O)[C@H](O)[C@H](O)[C@H]1O` [rhoifolin], the “binding to SARS-CoV 3CL” value (SARS-CoV 3CL) is given as “bind”.

For caryophyllene, the “inhibition of HSV-1” value (HSV-1) is listed as “inhibit”.
